Results on five compounds are retold here after US4579947A, “Substituted phenylalkylpiperazinylpropyl (ureas or thioureas) useful for treatment of immunological, inflammatory and allergic disorder” (Boehringer Ingelheim Pharmaceuticals, Inc., priority 1984, dated 1986).

For data set [1], the system named is rat peritoneal mast cells. In words: Inhibition of rat peritoneal mast cell histamine release. As to conditions: Table B, in vitro, sheep anti-rat IgE or ovalbumin, 60 minutes at 37° C., Int. = interference with test procedure; for IC50: Mast cell, 1 h, read-out: Inhibition IC50 (histamine release from rat peritoneal mast cells). In kind it is cell-based. On the procedure: Harvest of Peritoneal Mast Cells: After the rats are sacrificed with ether, 20 ml of Minimum Essential Medium (MEM) containing 20 units/ml heparin is injected into the peritoneum. The abdomen is massaged for one minute and the lavage fluid collected. The peritoneal cells are centrifuged at 1800 rpm for 8 minutes in cold. After two washes with Tris A buffer, the cells are resuspended in Tris ACM buffer at 2-33 10^6 cells/ml. 2. Reaction Mixture: The reaction is carried out in 12×75 mm plastic tubes at a total volume of 1.25 ml. The reaction mixture includes 0.5 ml (10-1000 μg) sheep anti-rat IgE or ovalbumin, 0.2 ml of the test compound in water at concentrations ranging from 10-1000 μM, 0.5 ml phosphatidylserine solution (20-60 μg to each tube), and 0.5 ml of cell suspension. The reaction mixture is incubated in a 37° C. shaking water bath for 60 minutes. Upon completion of the reaction, the tubes are centrifuged and the supernatants collected. The protein is removed from the supernatants by precipitation with 0.2 ml of 8% perchloric acid. 3. Histamine Assay: Histamine release is measured by the automated fluorometric method of Siraganian, supra. The concentration which causes a 50% inhibition (IC50) of histamine release is computed as in Part A.

For data set [2], the system named is isolated guinea pig ileum. The data set can be described thus: Antagonism of histamine-induced contraction of isolated guinea pig ileum. Type of data set: cell-based. The conditions noted are these: Cavia porcellus; Table C; histamine final concentration 0.2 μg/ml; read-out: Inhibition IC50 (histamine-induced contraction of isolated guinea pig ileum). On the procedure: The antagonism of the effects of histamine on the contraction of isolated guinea pig ileum by the compounds of formula I can be determined by the procedure of G. Possanza, A. Bauen, and P. Stewart, Int. Arch. Allergy Appl. Immunol., 49, 289 (1975). The degree of inhibition is determined as the difference between the contraction caused by histamine (final concentration 0.2 μg/ml) alone and that seen in the presence of both histamine and the test compound. The inhibitory activity of the test compound is expressed as that concentration of the compound which causes a 50% reduction of the contractile response (IC50).

Data set [3] has as its system human leukocytes (basophils). The data set can be described thus: Inhibition of human leukocyte (basophil) histamine release in vitro (rabbit anti-human IgE). Type of data set: cell-based. The conditions noted are these: Leukocyte, 1 h, Table A, 60 minutes at 37° C., Int. = interference with test procedure, read-out: Inhibition IC50 (histamine release from human leukocytes (basophils)). On the procedure:
Separation of Leukocytes: A modification of the method of L. Lichtenstein and A. Osler, J.Exp.Med. 120, 507 (1964) was used. Heparinized human blood (80-100 ml) is mixed with 20 ml of saline (0.2%) containing 0.6 gm of dextrose and 1.2 gm dextran in propylene centrifuge tubes. The mixture is kept at ambient temperature for 60-90 minutes to allow the separation of erythrocytes from the platelet-leukocyte-rich supernate. The supernate is removed and centrifuged for 8 minutes at 110×g in cold. The leukocyte pellet is washed 2× with Tris buffer and finally suspended in 150-180 ml Tris-ACM buffer at 1-2×10^6 cells/ml. 2. Reaction Mixture: The reaction is carried out in 12×75 mm plastic tubes at a total volume of 1.25 ml. The reaction medium includes 0.05 ml rabbit anti-human IgE (the antigen), 0.2 ml of the test compound in water at concentrations ranging from 10-1000 μM, and 1.0 ml of the leukocyte suspension. The reaction mixture is incubated in a 37° C. shaking water bath for 60 minutes. Upon completion of the reaction, the tubes are centrifuged and the supernatants collected. The protein is removed from the supernatants by precipitation with 0.2 ml of 8% perchloric acid. 3. Histamine Assay: Histamine release is measured by the automated fluorometric method of W. Siraganian and W. Hook in Chapter 102 of the Manual of Clinical Immunology, 2nd Edition, Edited by R. Rose and H. Friedman, Published by the American Society for Microbiology, Washington, D.C. 1980. Percent inhibition is calculated as follows: [formula] The concentration which causes a 50 percent inhibition (IC50) of histamine release is interpolated from a plot of percent inhibition versus logarithm of drug concentration.

The subject of data set [4] is CNS. In words: Standard mouse neuropharmacological profile. In kind it is in vivo. The source says:
With the exception of the compounds wherein R4 is a lower alkyl group from 7 to 12 carbon atoms, the compounds of formula I inhibit in vitro the histamine-induced contraction of isolated guinea pig ileum and are useful in warm-blooded animals for antagonizing the action of histamine at the histamine (H1) receptor. Accordingly, the compounds of formula I can be employed as antihistamine agents for the treatment of allergic disorders, for example allergic rhinitis, vasomotor rhinitis, allergic conjunctivitis, hay fever, urticaria, and food allergies. Certain compounds of formula I lack the CNS side effects, such as sedation, normally associated with antihistamine therapy.

Where a name gives a salt, the structure may show the parent alone. Where only a bound is given, the exact number is not on record here.

What is called IC50 is the midpoint of a concentration-inhibition curve. Take `O=C(NCCCN1CCN(Cc2ccc(Cl)cc2)CC1)Nc1ccccc1` [Example 9, 1-{3-[4-(4-Chlorobenzyl)piperazin-1-yl]propyl}-3-phenylurea]: the half-maximal inhibitory concentration (IC50) was above 1000 µM in data set [1], 0.05 µM in data set [2] and 78 µM in data set [3].

Take `CCOC(=O)c1ccc(NC(=O)NCCCN2CCN(Cc3ccc(Cl)cc3)CC2)cc1.Cl` [Example 13, 1-{3-[4-(4-Chlorobenzyl)piperazin-1-yl]propyl}-3-(4-ethoxycarbonylphenyl)urea hydrochloride]: in data set [4], the CNS effects result is “not to exert significant CNS effects”. Also, the figures for the IC50 in data set [2] and in data set [3] were 0.11 µM and 190 µM, respectively.

Turning to `Cl.O=C(NCCCN1CCN(Cc2ccc(Cl)cc2)CC1)Nc1ccc(C(=O)O)cc1` [Example 14, 1-{3-[4-(4-Chlorobenzyl)piperazin-1-yl]propyl}-3-(4-carboxyphenyl)urea hydrochloride], the CNS effects result in data set [4] is “not to exert significant CNS effects”. Also, the half-maximal inhibitory concentration (IC50) in data set [2] was 0.21 µM; in data set [3], above 1000 µM.

Regarding `N#Cc1ccc(NC(=O)NCCCN2CCN(Cc3ccc(Cl)cc3)CC2)cc1` [Example 24, 1-{3-[4-(4-Chlorobenzyl)piperazin-1-yl]propyl}-3-(4-cyanophenyl)urea dihydrochloride monohydrate], the 50% inhibitory concentration (IC50) is 150 µM in data set [1], 0.008 µM in data set [2] and 81 µM in data set [3].

As for `CCCCCCNC(=O)NCCCN1CCN(CCCc2ccc(Cl)cc2)CC1.Cl.Cl` [Example 25, 1-{3-[4-[3-(4-Chlorophenyl)propyl]piperazin-1-yl]propyl}-3-n-hexylurea dihydrochloride], the “Inhibition IC50 (histamine release from rat peritoneal mast cells)” value in data set [1] was “Int”. Further, the IC50 was found to be 0.13 µM in data set [2] and 10 µM in data set [3].
